Measurements as given in patent publication US8227511B2, “Substituted chromanol derivatives and their use” (Bayer Intellectual Property GmbH, priority 2006, dated 2012).

Columns and labels:
CETP [1] = molecular target: T1, CETP (Homo sapiens, UniProt P11597); test: CETP fluorescence test with enriched CETP; assay type: biochemical; details: enriched CETP fraction from human plasma; transfer of fluorescent cholesterol ester between liposomes; 37° C. for 4 h
T1 construct: CETP is obtained in partially purified form from human plasma by differential centrifugation and column chromatography and used for the test; from tissue; host or cells: human plasma
T1 sequence (P11597 18-493): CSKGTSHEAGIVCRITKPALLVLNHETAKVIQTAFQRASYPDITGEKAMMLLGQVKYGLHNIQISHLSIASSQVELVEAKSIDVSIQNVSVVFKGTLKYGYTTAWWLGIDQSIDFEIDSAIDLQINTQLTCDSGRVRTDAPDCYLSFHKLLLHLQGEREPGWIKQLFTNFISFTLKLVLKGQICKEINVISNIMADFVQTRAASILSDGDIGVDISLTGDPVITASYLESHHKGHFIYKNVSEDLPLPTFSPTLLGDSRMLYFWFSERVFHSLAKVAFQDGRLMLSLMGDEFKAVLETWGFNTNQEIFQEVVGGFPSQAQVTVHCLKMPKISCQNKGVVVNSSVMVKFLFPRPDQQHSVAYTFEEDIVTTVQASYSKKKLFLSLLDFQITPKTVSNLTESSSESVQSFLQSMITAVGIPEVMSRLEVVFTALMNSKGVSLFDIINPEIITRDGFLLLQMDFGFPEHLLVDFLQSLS
Experimental: (§1) CETP is obtained in partially purified form from human plasma by differential centrifugation and column chromatography and used for the test. To this end, human plasma is adjusted to a density of 1.21 g per ml using NaBr and centrifuged at 4° C. at 50 000 rpm for 18 h. The bottom fraction (d>1.21 g/ml) is applied to a Phenyl-Sepharose 26/10 HP fast flow-column (Pharmacia), washed with PBS buffer and then eluted with distilled water. 10 parts of PBS buffer and 1% (w/v) BSA are added to the eluate. The CETP-active fractions are pooled.
Measurement of the CETP-catalyzed transfer of a fluorescent cholesterol ester between liposomes [modified according to the procedure of Bisgaier et al., J. Lipid Res. 34, 1625 (1993)]:
For the production of the donor liposomes, 1 mg of cholesteryl 4,4-difluoro-5,7-dimethyl-4-bora-3a,4a-diaza-s-indacene-3-dodecanoate (cholesteryl BODIPY® FL C12, Molecular Probes) is dissolved in 2 ml of chloroform with 5.35 mg of triolein and 6.67 mg of phosphatidylcholine. The solvent is removed at medium temperature in a SpeedVac and the residue is dried under high vacuum for 1 h. The residue is then dissolved in 600 μl of dioxane with gentle warming in an ultrasonic bath and this solution is added very slowly with ultrasonication to 63 ml of 50 mM Tris/HCl, 150 mM NaCl, 2 mM EDTA buffer pH 7.3 at room temperature. The suspension is then ultrasonicated under an N2 atmosphere for 30 minutes in the Branson ultrasonic bath at about 50 watts, the temperature being kept at about 20° C.
The acceptor liposomes are obtained analogously from 86 mg of cholesteryl oleate, 20 mg of triolein and 100 mg of phosphatidylcholine dissolved in 1.2 ml of dioxane and 114 ml of the above buffer by ultrasonication at 50 watts (20° C.) for 30 minutes.
For testing, a test mix consisting of 1 part of above buffer, 1 part of donor liposomes and 2 parts of acceptor liposomes is used.
50 μl of test mix are treated with 48 μl of enriched CETP fraction (1-3 μg), obtained from human plasma by means of hydrophobic chromatography, and 2 μl of a solution of the substance to be investigated in DMSO and incubated at 37° C. for 4 h.
The change in the fluorescence at 485/535 nm is a measure of the CE transfer; the inhibition of the transfer in comparison to the control batch without substance is determined.

CETP [2] = molecular target: T1, CETP; test: CETP-SPA test; assay type: biochemical; details: transfer of 3H-cholesterol ester from human HDL to biotinylated LDL; 37° C. for 18 h
Experimental: as §1
For testing of the CETP activity, the transfer of ^3H-cholesterol ester from human HD lipoproteins to biotinylated LD lipoproteins is measured. The reaction is ended by addition of streptavidin-SPA® beads (Amersham) and the transferred radioactivity is determined directly in a liquid scintillation counter.
In the test batch, 10 μl of HDL-3H-cholesterol ester (about 50 000 cpm) are incubated at 37° C. for 18 h with 10 μl of biotin-LDL (Amersham) in 50 mM Hepes/0.15 M NaCl/0.1% bovine serum albumin (RSA)/0.05% NaN3 pH 7.4 containing 10 μl of CETP (1 mg/ml) and 3 μl of a solution of the substance to be tested (dissolved in 10% DMSO/1% RSA). 200 μl of the SPA-streptavidin bead solution (TRKQ 7005) are then added, incubated further with shaking for 1 h and then measured in a scintillation counter. Corresponding incubations with 10 μl of buffer, 10 μl of CETP at 4° C. and 10 μl of CETP at 37° C. serve as controls.
The activity transferred in the control batches with CETP at 37° C. is rated as 100% transfer. The substance concentration at which this transfer is reduced to half is specified as the IC50 value.

transgenic hCETP mice = test: Measurement of the in vivo activity in transgenic hCETP mice; details: perorally once a day on 3 days, percentage change compared with the starting value
Experimental: To determine the oral action on lipoproteins and triglycerides, test substance is administered perorally to transgenic mice [Dinchuk et al., BBA, 1295-1301 (1995)] using a stomach tube once a day on 3 days. For this purpose, the substances are dissolved in 10% Solutol HS 15/10% ethanol/80% of a 0.9% strength sodium chloride solution; the administration volume is generally 10 ml per kg of body weight. Before the start of the experiment, blood is withdrawn from the mice retro-orbitally in order to determine cholesterol and triglycerides in the serum. The serum is obtained as described above for hamsters by incubation at room temperature for 30 min and subsequent centrifugation at 6000 g. On the day after the last administration of substance, blood is again withdrawn from the mice in order to determine lipoproteins and triglycerides. The changes in the parameters measured are expressed as the percentage change compared with the starting value.

SMILES | IC50 (CETP [1]) [nM] | IC50 (CETP [2]) [nM] | % increase of HDL after 3 d (dose: 3 × 3 mg/kg) (transgenic hCETP mice) [%]
CC(C)c1cc2c(c(-c3ccc(F)cc3)c1[C@@H](O)c1ccc(C(F)(F)F)cc1)[C@@H](O)CC1(CCC1)O2 [Example 28, (4S)-5-(4-Fluorophenyl)-6-{(S)-hydroxy[4-(trifluoromethyl)phenyl]methyl}-7-isopropyl-3,4-dihydrospiro[chromen-2,1′-cyclobutan]-4-ol] | 77 | 22 | 25
CC(C)c1cc2c(c(C3CCCC3)c1[C@@H](F)c1ccc(C(F)(F)F)cc1)[C@@H](O)CC1(CCC1)O2 [Example 42, (4S)-5-Cyclopentyl-6-{(S)-fluoro[4-(trifluoromethyl)phenyl]methyl}-7-isopropyl-3,4-dihydrospiro-[chroman-2,1′-cyclobutan]-4-ol] | 26 | 21 | 81
